Test results reported in patent US20030096264A1, “Multi-parameter high throughput screening assays (MPHTS)” (Psychiatric Genomics, Inc., priority 2001, published 2003).

Experiments:
NBFL cell line = assay: RT-PCR validation of differential expression in NBFL cells treated with valproate; format: cell-based, human; conditions: valproate treated vs untreated, normalized to GAPDH
Protocol: To validate differential expression measurements that were obtained using microarrays, expression levels were also measured using a reverse transcription polymerase chain reaction (RT-PCR) assay for five genes having the highest expression ratio in Table 3: nidogen (SEQ ID NO:25; σ=1.7), silver (SEQ ID NO:26; σ=1.6), dopamine β-hydroxylase (SEQ ID NO:53; σ=-1.7), dopa decarboxylase (SEQ ID NO:54; σ=−2) and chromogranin B (SEQ ID NO:55; σ=−2.1). These RT-PCR experiments were performed according to routine methods that are known in 10 the art. Briefly, RNA from the NBFL cell line treated with or without valproate was primed with oligo-dT and reverse transcribed. The resultant cDNA was subjected to either 25 or 30 rounds of PCR amplification, depending on the absolute expression level of the gene tested. The amount of PCR product generated from each sample was normalized to the amount of GAPDH amplified from each sample and a fold-change relative to valproate treatment was calculated. β-actin was used as an additional control.
The results from these experiments are shown graphically in FIG. 3. As expected, no change in β-actin (B-ACT) expression was detected (+/− one-fold) when cells were treated with valproate. However, a greater than 2-fold change in expression levels was measured for each of the five other genes tested: nidogoen (NID), silver (SIL), dopamine β-hydroxylase (DBH), dopa decarboxylase (DDC) and chromogranin B (CG-B).

rat hippocampus = assay: In vivo expression profile in hippocampus of rats treated with valproate; conditions: three weeks
Protocol: Specifically, in these experiments rats were treated with valproate, and gene expression levels in the hippocampus of each rat were measured for a plurality of different genes.
In more detail, twenty rats were divided into two groups, containing ten individuals each. One group of ten rats was used as the control group, whereas the other group functioned as the experimental group. Each rat in the experimental group was injected twice daily with 250 mg valproate for each kilogram of the rat's body mass. Each rat in the control group was similarly injected, but with a vehicle that contained no active ingredient. After three weeks dosing, the rats were sacrificed and their brains removed. Each rat's brain was divided in half. The hippocampus was then removed from each half and flash frozen. The half hippocampus tissue from the rats in each group was combined and total RNA was extracted from the tissue using TriReagent (Invitrogen Corp., Carlsbad Calif.) following the manufacturer's instructions. mRNA was purified with Oligotext (Qiagen Inc., Valencia Calif.) following the manufacturer's recommended protocol. mRNA quality and concentration was determined using the Agilent Bioanalyzer.
For expression profile analysis, mRNA from the pooled tissues of the control group was measured with Cy3 dye, and mRNA from the pooled tissues of the experimental group was measured with Cy5 dye. The labeled probes were then mixed and hybridized to a Rat Tox3 microarray (Incyte Genomics, Palo Alto Calif.). The relative signal intensity from each fluorescent dye was measured for each element (i.e., for each “gene”) on the microarray, normalized for differences, and the relative difference in expression level determined.
The relative differences in expression levels for various genes are plotted in FIG. 4. Specifically, each point on the plot represents a gene whose expression level was measured in both the experimental and control groups. Each point's position along the horizontal axis indicates the relative Cy3 signal intensity measured for that gene and reflects, therefore, the gene's expression in rats that were not treated with valproate. A point's position along the vertical axis indicates the relative Cy5 signal intensity measured for the corresponding gene, reflecting the gene's expression in the hippocampus of rats that were treated with valproate. […] By contrast, changes by at least a factor of 1.5 (i.e., θ≧1.5) indicate significant changes in expression in response to the valproate treatment (identified using a Rat Toxicology array from Incyte, Palo Alto, Calif.). These genes are listed in Table 5, below, along with GenBank Accession number for those genes. Again, a cDNA sequence for each gene listed in Table 5 is also provided in the accompanying Sequence Listing, and its sequence identifier is specified in Table 5 along with the GenBank Accession number.

CCCC(CCC)C(=O)O [valproate]
change in expression level by RT-PCR: chromogranin B (CG-B) (NBFL cell line): greater than 2 fold | change in expression level by RT-PCR: dopa decarboxylase (DDC) (NBFL cell line): greater than 2 fold | change in expression level by RT-PCR: dopamine β-hydroxylase (DBH) (NBFL cell line): greater than 2 fold | change in expression level by RT-PCR: nidogoen (NID) (NBFL cell line): greater than 2 fold | change in expression level by RT-PCR: silver (SIL) (NBFL cell line): greater than 2 fold | Φ: pol polyprotein (rat hippocampus; 250 mg/kg twice daily, AAC31805 SEQ ID NO: 85): 1.9 | Φ: CGI-83 protein (rat hippocampus; 250 mg/kg twice daily, AAD34078 SEQ ID NO: 89): 1.9 | Φ: CGI-86 protein (rat hippocampus; 250 mg/kg twice daily, AAD34081 SEQ ID NO: 88): 1.9 | Φ: Rat RT1-DOb gene, partial cds. (rat hippocampus; 250 mg/kg twice daily, AB008110 SEQ ID NO: 63): 2.4 | Φ: Mouse BAC-146N21 Chromosome X contains iduronate-2-sulfatase gene; complete sequence. (rat hippocampus; 250 mg/kg twice daily, AC002315 SEQ ID NO: 96): 1.8 | Φ: Mouse chromosome unknown clone rp21-657p21 strain 129S6/SvEvTac, complete sequence. (rat hippocampus; 250 mg/kg twice daily, AC005743 SEQ ID NO: 62): 2.5 | Φ: Mouse chromosome 18 clone mgsriii-pl-3084 strain RIII Fibroblast cell line C 127, complete sequence. (rat hippocampus; 250 mg/kg twice daily, AC007665 SEQ ID NO: 75): 2.1 | Φ: Mouse chromosome 10, clone RP21-247L16, complete sequence. (rat hippocampus; 250 mg/kg twice daily, AC012302 SEQ ID NO: 87): 1.9 | Φ: Mouse chromosome 18 clone RP23-16108, complete sequence. (rat hippocampus; 250 mg/kg twice daily, AC020967 SEQ ID NO: 57): 3.1 | Φ: Mouse TCR beta locus from bases 250554 to 501917 (section 2 of 3) of the complete sequence. (rat hippocampus; 250 mg/kg twice daily, AE000664 SEQ ID NO: 58): 2.8 | Φ: Mouse TCR beta locus from bases 250554 to 501917 (section 2 of 3) of the complete sequence. (rat hippocampus; 250 mg/kg twice daily, AE000664 SEQ ID NO: 61): 2.5 | Φ: Mouse TCR beta locus from bases 250554 to 501917 (section 2 of 3) of the complete sequence. (rat hippocampus; 250 mg/kg twice daily, AE000664 SEQ ID NO: 79): 2 | Φ: Rat strain Long Evans shaker myelin basic protein (Mbp) gene, intron 3, interrupted by ETn retrotransposon. (rat hippocampus; 250 mg/kg twice daily, AF076337 SEQ ID NO: 65): 2.3 | Φ: Mouse LDL receptor member LR3 mRNA, complete cds. (rat hippocampus; 250 mg/kg twice daily, AF077847 SEQ ID NO: 70): 2.2 | Φ: Mouse MHC class III region RD gene, partial eds; Bf, C2, G9A, NG22, G9, HSP70, HSP70, HSC70t, and smRNP genes, complete cds; G7A gene, partial cds; and unknown genes. (rat hippocampus; 250 mg/kg twice daily, AF109906 SEQ ID NO: 86): 1.9 | Φ: Mouse chromosome X clone BAC B22804, complete sequence. (rat hippocampus; 250 mg/kg twice daily, AF121351 SEQ ID NO: 71): 2.2 | Φ: Mouse (Mus musculus domesticus) X chromosome region similar to Human DXS963E, complete sequence. (rat hippocampus; 250 mg/kg twice daily, AF130357 SEQ ID NO: 97): 1.8 | Φ: Rat cytosolic branch chain aminotransferase BCATc mRNA, partial cds. (rat hippocampus; 250 mg/kg twice daily, AF 165887 SEQ ID NO: 111): −1.5 | Φ: Rat calmodulin mRNA, complete cds. (rat hippocampus; 250 mg/kg twice daily, AF178845 SEQ ID NO: 102): −1.6 | Φ: Mouse Naip3 gene, exon 1; neuronal apoptosis inhibitory protein 1 (Naip 1) and general transcription factor IIH polypeptide 2 (Gtf2h2) genes, complete cds. (rat hippocampus; 250 mg/kg twice daily, AF242432 SEQ ID NO: 80): 2 | Φ: Mouse BAC 171m12 MESDC1 (Mesdc1) and MESDC2 (Mesdc2) genes, complete cds. (rat hippocampus; 250 mg/kg twice daily, AF311213 SEQ ID NO: 67): 2.3 | Φ: Rat gene encoding tyrosine aminotransferase. (rat hippocampus; 250 mg/kg twice daily, AJ010709 SEQ ID NO: 93): 1.8 | Φ: Rat mRNA for Sulfotransferase K2. (rat hippocampus; 250 mg/kg twice daily, AJ238392 SEQ ID NO: 77): 2 | Φ: unnamed protein product (rat hippocampus; 250 mg/kg twice daily, BAB15010 SEQ ID NO: 90): 1.8 | Φ: hypothetical protein (rat hippocampus; 250 mg/kg twice daily, CAB70864 SEQ ID NO: 117): −1.5 | Φ: Rat mRNA for histamine N-methyltransferase, complete cds. (rat hippocampus; 250 mg/kg twice daily, D10693 SEQ ID NO: 72): 2.1 | Φ: Rat mRNA for delta-4-3-ketosteroid 5-beta-reductase, complete cds. (rat hippocampus; 250 mg/kg twice daily, D17309 SEQ ID NO: 68): 2.2 | Φ: Rat mRNA for 14-3-3 protein theta-subtype, complete cds. (rat hippocampus; 250 mg/kg twice daily, D17614 SEQ ID NO: 109): −1.5 | Φ: Mouse mRNA for plexin 2, complete cds. (rat hippocampus; 250 mg/kg twice daily, D86949 SEQ ID NO: 95): 1.8 | Φ: Rat clathrin heavy chain mRNA, complete cds. (rat hippocampus; 250 mg/kg twice daily, J03583 SEQ ID NO: 112): −1.5 | Φ: rat myelin basic protein (mbp) gene mrna. (rat hippocampus; 250 mg/kg twice daily, K00512 SEQ ID NO: 99): −1.6 | Φ: Rat long terminal repeat DNA sequence. (rat hippocampus; 250 mg/kg twice daily, L19707 SEQ ID NO: 73): 2.1 | Φ: Rat stress activated protein kinase alpha I mRNA, complete cds. (rat hippocampus; 250 mg/kg twice daily, L27111 SEQ ID NO: 105): −1.5 | Φ: Murine phosphoprotein phosphatase mRNA, complete cds. (rat hippocampus; 250 mg/kg twice daily, M8 1475 SEQ ID NO: 114): −1.5 | Φ: Mouse myelin proteolipid protein mRNA, complete cds. (rat hippocampus; 250 mg/kg twice daily, M15442 SEQ ID NO: 103): −1.6 | Φ: Rat nuclear-encoded mitochondrial ATP synthase beta-subunit mRNA, 5′ end. (rat hippocampus; 250 mg/kg twice daily, M25301 SEQ ID NO: 107): −1.5 | Φ: Rat calcincurin A mRNA, complete cds. (rat hippocampus; 250 mg/kg twice daily, M29275 SEQ ID NO: 98): −1.7 | Φ: Rat senescence marker protein 2B gene, exons 1 and 2. (rat hippocampus; 250 mg/kg twice daily, M29302 SEQ ID NO: 81): 1.9 | Φ: Rat thymosin beta-4 mRNA, complete cds. (rat hippocampus; 250 mg/kg twice daily, M34043 SEQ ID NO: 104): −1.5 | Φ: Rat cytochrome P450 IV A1 (CYP4A1) gene, complete cds. (rat hippocampus; 250 mg/kg twice daily, M57718 SEQ ID NO: 64): 2.4 | Φ: Rat (LxRN3) LINE 1 repeat element, ORF II. (rat hippocampus; 250 mg/kg twice daily, M60824 SEQ ID NO: 66): 2.3 | Φ: Rat (clone pRHx1) hemopexin mRNA, complete cds. (rat hippocampus; 250 mg/kg twice daily, M62642 SEQ ID NO: 84): 1.9 | Φ: Rat 3-alpha-hydroxysteroid dehydrogenase (3-alpha-HSD) mRNA, complete cds. (rat hippocampus; 250 mg/kg twice daily, M64393 SEQ ID NO: 69): 2.2 | Φ: Rat kallikrein-binding protein (RKBP) gene. (rat hippocampus; 250 mg/kg twice daily, M67496 SEQ ID NO: 74): 2.1 | Φ: {clone 6B1, intracisternal A-particle derived LTR fragment} [rats, Genomic, 208 nt]. (rat hippocampus; 250 mg/kg twice daily, S51653 SEQ ID NO: 76): 2.1 | Φ: {clone E512, estrogen induced gene} [rats, Sprague-Dawley, hypothalamus, mRNA Partial, 259 nt]. (rat hippocampus; 250 mg/kg twice daily, S74327 SEQ ID NO: 118): −1.5 | Φ: Rat Sprague-Dawley UDP-glucuronosyltransferase (UGT2B12) mRNA, complete cds. (rat hippocampus; 250 mg/kg twice daily, U06273 SEQ ID NO: 59): 2.7 | Φ: Rat LEW/N clone D0N544 satellite DNA sequence. (rat hippocampus; 250 mg/kg twice daily, U06685 SEQ ID NO: 82): 1.9 | Φ: Rat Eker rat-associated intracisternal-A-particle element. (rat hippocampus; 250 mg/kg twice daily, U23776 SEQ ID NO: 83): 1.9 | Φ: Rat Eker rat-associated intracisternal-A-particle element. (rat hippocampus; 250 mg/kg twice daily, U23776 SEQ ID NO: 94): 1.8 | Φ: Rat protein kinase C-binding protein NELL2 mRNA, complete cds. (rat hippocampus; 250 mg/kg twice daily, U48245 SEQ ID NO: 106): −1.5 | Φ: Mouse hippocampal amyloid precursor protein mRNA, complete cds. (rat hippocampus; 250 mg/kg twice daily, U84012 SEQ ID NO: 116): −1.5 | Φ: Rat mRNA for amyloidogenic glycoprotein (rAG), cognate of Human A4 amyloid precursor protein. (rat hippocampus; 250 mg/kg twice daily, X07648 SEQ ID NO: 101): −1.6 | Φ: Rat CaMII gene, exon 1 (and joined cds). (rat hippocampus; 250 mg/kg twice daily, X13833 SEQ ID NO: 113): −1.5 | Φ: Rat mRNA for Mx3 protein. (rat hippocampus; 250 mg/kg twice daily, X52713 SEQ ID NO: 78): 2 | Φ: Mouse rac1 gene. (rat hippocampus; 250 mg/kg twice daily, X57277 SEQ ID NO: 115): −1.5 | Φ: Rat mRNA for cdc2 promoter region. (rat hippocampus; 250 mg/kg twice daily, X60767 SEQ ID NO: 92): 1.8 | Φ: Rat L1 retroposon/pseudogene; 3′ flank. (rat hippocampus; 250 mg/kg twice daily, X61298 SEQ ID NO: 60): 2.6 | Φ: Rat mRNA for ubiquitin and ribosomal protein S27a. (rat hippocampus; 250 mg/kg twice daily, X81839 SEQ ID NO: 108): −1.5 | Φ: Rat MAL protein gene and mRNA. (rat hippocampus; 250 mg/kg twice daily, X82557 SEQ ID NO: 110): −1.5 | Φ: Rat mRNA for Myelin-associated/Oligodendrocytic Basic Protein-81. (rat hippocampus; 250 mg/kg twice daily, X87900 SEQ ID NO: 100): −1.6 | Φ: Rat mRNA for Tsx gene. (rat hippocampus; 250 mg/kg twice daily, X99797 SEQ ID NO: 91): 1.8 | Φ: Rat L1 retrotransposon mlvi2-rn14, 5′UTR and putative RNA binding protein 1 gene, partial cds. (rat hippocampus; 250 mg/kg valproate twice daily, vs vehicle, U87602 SEQ ID NO: 56): 3.6
